Test results from article PMC6506541, “A Bio-inspired Hypoxia Sensor using HIF1a-Oxygen-Dependent Degradation Domain” (Scientific Reports, 2019).

Columns and labels:
Type in all cases: cell-based, Human
HA-tagged ubiquitin = test: Immunoprecipitation of HA-tagged ubiquitinated sensor; details: MDA-MB 231 cells transfected with pcDNA3-Ub-HA; 5 h with sensor; anti-HA immunoprecipitation; IVIS fluorescence
Procedure: MDA-MB 231 cells were seeded at a density of 2·10^5 cells per well in 6-multiwell plates twenty-four hours prior transfection. Each well was transfected with 2 μg of either pcDNA3-Ub-HA or empty vector pcDNA3 (Invitrogen) using Superfect (Qiagen) as transfection reagent. Twenty-four hours upon transfection culture medium was removed, cells were washed carefully with phosphate buffered saline (PBS; Sigma-Aldrich) and fresh culture medium containing the peptidic sensor 1 was added onto the cells. PBS was used as mock treatment. Five hours upon treatment with the sensor, cells were lysed in native immunoprecipitation buffer, 20 mM Tris·HCl pH 8, 137 mM NaCl,10% glycerol,1% Nonidet P-40 (NP-40), 2 mM EDTA, containing the protease inhibitors sodium orthovanadate (1 mM), PMSF (2 mM) and aprotinin (1 μg/mL) (Sigma-Aldrich). Each immunoprecipitation contained 600 μg of whole protein extract and were incubated overnight with 5 μg of anti-hemagglutinin HA.11 (Clone 16B12) antibody (Abcam) at 4 °C. Equal amounts of rabbit immunoglobulins (Sigma-Aldrich) were used as control. HA-tagged ubiquitins were immunoprecipitated using Protein G-coupled agarose (Santa Cruz), subsequently washed with immunoprecipitation buffer and eluted under native conditions. Fluorescence images were taken using an IVIS Spectrum system (Perkin-Elmer).

proteasome = test: Sensor degradation under proteasome inhibitor MG-132; details: MDA-MB 231 cells; MG-132 20 μM or 40 μM, 6 h, after pre-treatment with probe
Procedure: (§1) Human breast cancer cells MDA-MB 231 were maintained at 37 °C and 5% CO2 in RPMI-1640 (Sigma–Aldrich), supplemented with 10% fetal bovine serum (Fisher Scientific). Cells were seeded at a density of 2·10^5 cells per well in 6-multiwell plates 24 h prior treatment. For hypoxia induction, they were treated with either CoCl2 (Sigma–Aldrich) at a final concentration of 500 μM, or L-Mimosine (Sigma–Aldrich) at a final concentration of 800 μM. Treatment with each peptidic sensor (500 ng/mL) was carried out in the presence of the aforementioned inhibitors. After three hours of incubation, supernatants containing the probes and either CoCl2 or L-Mimosine were aspirated, cells were washed once with PBS 1X and fresh medium, containing again either CoCl2 or L-Mimosine, was added to the cells for an extended incubation of three hours. Treatment with proteasome inhibitor MG-132 (Sigma-Aldrich) was carried out for 6 hours at final concentrations of either 20 μM or 40 μM, upon pre-treatment of the cells with the probes, as described previously. Fluorescent probes internalization was quantified using ImageJ (NIH). Quantified fluorescence was expressed as values of corrected total cell fluorescence (CTCF), which was calculated using the formula CTCF = integrated density – (area of selected cell × mean fluorescence of background readings)[44].

MDA-MB 231 cells = test: Sensor stabilization by hypoxia-mimetic agents, fluorescence microscopy; details: sensor 500 ng/mL, CoCl2 500 μM or L-Mimosine 800 μM vs vehicle, 3 h incubation, wash, further 3 h
Procedure: as §1

Q: “LDLEMLAPYIPMDDDFQL [compound 1, 5(6)-ROX-labelled HIF-1α ODD domain peptide (Leu557-Leu574) linked to octa-arginine by O2Oc PEG linkers]” was tested. Which “ubiquitination of sensor (enrichment by HA immunoprecipitation)” value (HA-tagged ubiquitin) did it give?
A: degradation of the sensor is ubiquitin proteasome-regulated

Q: And the “effect of proteasome inhibitor MG-132 on degradation of sensor fluorescent signal” value (proteasome)?
A: dose-dependent effect on proteasome degradation of fluorescent signal

Q: And the “stabilization of sensor fluorescence (inhibition of sensor degradation) by hypoxia mimetics” value (MDA-MB 231 cells)?
A: stabilized in the presence of both molecules that mimic hypoxia
